Reference: patent US5399487A, “6-peptidylamino-1-naphthalenesulfonamides useful as fluorogenic proteolytic enzyme substrates” (Haematologic Technologies, Inc., priority 1993, dated 1995)
Where a SMILES comes first, the peptide text is derived from it. The star is where a group is joined. pNA = O=[N+]([O-])c1ccc(N*)cc1; Tos = Cc1ccc(S(=O)(=O)*)cc1

How the values were obtained:
Type in all cases: biochemical
factor Xa [1] = target: T1, factor Xa (Homo sapiens, UniProt P00742); assay: Kinetic constants of substrate hydrolysis, Chromozyme TH vs TosGPR-ANSN (Table A); conditions: 22° C., 0.02M TBS pH 7.4, 0.15M NaCl
Method: (§1) The 6-amino-1-naphthalenesulfonamide detecting group increased the specificity of the overall kinetic efficiency of substrate hydrolysis by thrombin relative to the rate of hydrolysis of the p-nitroanilide substrate chromozyme TH (American Diagnostics). Commercially available substrate (Chromozyme TH, TosGPR-p-NA) was compared to a substrate of the present invention, Tosgly-pro-arg-ANSN(i-C4 H9) (TosGPR-ANSNH(i-C4 H9)) in an assay performed at 22° C. in 0.02M TBS buffer at pH 7.4, containing 0.15M NaCl.

factor IIa = target: T2, factor IIa (Homo sapiens, UniProt P00734); assay: as above; conditions: 22° C., 0.02M TBS pH 7.4, 0.15M NaCl
T2 construct: 0.5 nM human thrombin (IIa)
Method: as §1

factor Xa [2] = target: T1, factor Xa; assay: Fluorogenic enzyme assay (Example 5); parameters: key to Kinetic constants, Xa (symbol b): slow substrate hydrolysis, no kinetic constants calculated; conditions: for TIME TO 10% HYDROLYSIS (HOURS), Xa / hydrolysis, Xa (symbol d): 10 nM enzyme, substrate 1 μM; for hydrolysis, Xa (symbol d): at 100 hours
Procedure, shortened: (§2)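 Fluorogenic substrate was diluted into 20 mM Tris, 150 mM NaCl, pH 7.4, enzyme added at room temperature (22° C), and fluorescence at 470 nm (excitation 352 nm) monitored to give initial rates. Rates were converted via a fluorophore standard curve and fitted for Km and kcat.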

factor IXa = factor IXa (Homo sapiens, UniProt P00740); assay: Fluorogenic enzyme assay (Example 5); parameters: key to Kinetic constants, IXa (symbol b): slow substrate hydrolysis, no kinetic constants calculated; conditions: for TIME TO 10% HYDROLYSIS (HOURS), IXa / hydrolysis, IXa (symbol d): 100 nM enzyme, substrate 1 μM; for hydrolysis, IXa (symbol d): at 100 hours
Method: (§3) Enzyme assays (except factor VIIa assays, see below) were conducted in 20 mM Tris, 150 mM NaCl, pH 7.4 (TBS) at room temperature (22° C.). The final volume for all reaction mixtures was 2.0 ml. Fluorogenic substrates were dissolved in DMSO to a stock concentration of 10 mM. The 10 mM stock solution was diluted in TBS to the final working concentration prior to all assays. Enzyme was added to mixtures containing buffer components and substrate and the initial rate of substrate hydrolysis was measured as the change in fluorescent intensity over time, corresponding to the generation of the particular 6-amino-1-naphthalenesulfonamide fluorophore from the provided substrate. Quantitation of substrate hydrolysis was accomplished by establishing a standard curve from the appropriate fluorescent moiety. Fluorescence was monitored (continuously or discontinuously) using a Perkin Elmer fluorescence spectrophotometer, model MPF-44A, equipped with a standard chart recorder. The fluorophore was detected using monochrometers set at an excitation wavelength of 352 nm and an emission wavelength of 470 nm. Light scattering artifacts were minimized using a 399 nm cut off filter in the emission light beam.
The kinetic constants of substrate hydrolysis were determined using the non-linear least squares regression analysis program ENZFITTER (Cambridge, UK). This program was used to iteratively fit initial rates of substrate hydrolysis to the Michaelis-Menten equation and the kinetic constants of substrate hydrolysis (Km) and (kcat) were calculated.

thrombin (IIa) = target: T3, thrombin (IIa) (Homo sapiens, UniProt P00734); assay: Fluorogenic enzyme assay (Example 5); parameters: key to Kinetic constants, IIa (symbol b): slow substrate hydrolysis, no kinetic constants calculated
T3 construct: 0.5 nM human thrombin (IIa)
Procedure, shortened: as §2

[3] = target: activated protein C (APC) (Homo sapiens, UniProt P04070); assay: Fluorogenic enzyme assay (Example 5); conditions: for TIME TO 10% HYDROLYSIS (HOURS), APC: substrate 1 μM; for Km / kcat /Km, APC / kcat, APC: Table 9
Procedure, shortened: as §2

factor VIIa = target: T4, factor VIIa (Homo sapiens, UniProt P08709); assay: Fluorogenic enzyme assay, relative hydrolysis rates (Table 8); conditions: at 100 hours; 10 nM enzyme, substrate 1 μM
T4 construct: directly measure the enzymatic activity of factor VIIa in the presence and absence of tissue factor and phospholipid
T4 sequence (P08709 213-466 limits assumed): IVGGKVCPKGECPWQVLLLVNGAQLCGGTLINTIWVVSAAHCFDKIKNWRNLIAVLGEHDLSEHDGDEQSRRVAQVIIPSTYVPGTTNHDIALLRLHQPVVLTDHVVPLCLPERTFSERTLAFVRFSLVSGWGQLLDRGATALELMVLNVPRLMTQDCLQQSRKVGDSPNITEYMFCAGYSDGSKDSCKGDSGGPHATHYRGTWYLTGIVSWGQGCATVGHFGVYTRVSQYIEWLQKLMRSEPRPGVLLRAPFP
T4 sequence (P08709 61-212 limits assumed): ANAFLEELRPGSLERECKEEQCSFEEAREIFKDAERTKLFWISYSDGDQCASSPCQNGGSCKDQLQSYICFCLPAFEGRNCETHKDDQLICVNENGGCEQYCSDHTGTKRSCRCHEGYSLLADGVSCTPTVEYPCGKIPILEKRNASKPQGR
Method: as §3
Factor VII assays were conducted in 20 mM HEPES, 150 mM NaCl, 5 mM CaCl2, pH 7.4 (HBS) at 37° C. The final volume for all reactions was 1.6 ml. 6-(Mes-D-Leu-Gly-Arg)amino-1-(N,N-diethyl)naphthalenesulfonamide was dissolved in DMSO to a stock concentration of 10 mM. This 10 mM stock solution of was diluted in HBS to final working concentration prior to all assays. For reactions involving tissue factor (TF) and phospholipid vesicles, recombinant human tissue factor was solubilized in either 0.04% n-dodecyl octaethylene glycol (C12 E8) or 0.8% octyl glucoside. The TF/n-dodecyl octaethylene glycol was then relipidated into PCPS or PC vesicles by a 30 minute incubation step as described by Lawson & Mann, J. Biol. Chem. 266: 11317-11327 (1991). TF/octyl glucoside was relipidated into PC or PCPS vesicles by a thirty minute incubation step followed by exhaustive dialysis. The final concentration of tissue factor used in the studies described here ranged from 2 to 50 nM depending on the nature of the experiment.
Fifteen minutes prior to the start of all reactions factor VIIa was added to the reaction system. This incubation period was followed by the addition of substrate (1 μM to 400 μM) to the mixture to start the reaction. In experiments designed to determine kinetic constants of substrate hydrolysis, 50 nM rVIIa was used when no tissue factor was present in the reaction system, while 0.5 nM rVIIa was used when tissue factor was present in the reaction system. The rate of substrate hydrolysis was measured by change in fluorescence over time, which corresponded with the generation of the 6-amino-1-(N,N-diethyl)naphthalenesulfonamide from the provided substrate. The kinetic constants of 6-(Mes-D-Leu-Gly-Arg)amino-1-(N,N-diethyl)naphthalenesulfonamide hydrolysis as a function of factor VIIa/tissue factor complex assembly are shown in Table 10.

[4] = target: tissue plasminogen activator (t-PA) (Homo sapiens, UniProt P00750); assay: Fluorogenic enzyme assay (Example 5); conditions: 100 nM enzyme, substrate 1 μM; for hydrolysis, t-PA (symbol d): at 100 hours
Procedure, shortened: as §2

urokinase (u-PA) = urokinase (u-PA) (Homo sapiens, UniProt P00749); assay: Fluorogenic enzyme assay (Example 5); conditions: 100 nM enzyme, substrate 1 μM; for hydrolysis, u-PA (symbol d): at 100 hours
plasmin (Plm) = plasmin (Plm) (Homo sapiens, UniProt P00747); assay: Fluorogenic enzyme assay (Example 5); conditions: substrate 1 μM
Procedure, shortened: as §2

[5] = 1 nM enzyme (footnote c), substrate 1 μM

Sequence of activated protein C (APC) (P04070 212-461 limits assumed): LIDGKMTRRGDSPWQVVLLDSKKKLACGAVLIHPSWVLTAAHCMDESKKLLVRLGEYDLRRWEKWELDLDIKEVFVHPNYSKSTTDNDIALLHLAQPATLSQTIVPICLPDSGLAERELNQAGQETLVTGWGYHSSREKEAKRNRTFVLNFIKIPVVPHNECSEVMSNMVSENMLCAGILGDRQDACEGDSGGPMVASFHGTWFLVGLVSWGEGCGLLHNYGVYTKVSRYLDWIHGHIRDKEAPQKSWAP
Sequence of activated protein C (APC) (P04070 43-197 limits assumed): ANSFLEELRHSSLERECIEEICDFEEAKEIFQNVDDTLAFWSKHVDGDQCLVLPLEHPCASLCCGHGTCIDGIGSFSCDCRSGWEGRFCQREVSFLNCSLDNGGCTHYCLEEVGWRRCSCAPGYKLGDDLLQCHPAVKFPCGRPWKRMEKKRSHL
Sequence of plasmin (Plm) (P00747 581-810 limits assumed, species assumed): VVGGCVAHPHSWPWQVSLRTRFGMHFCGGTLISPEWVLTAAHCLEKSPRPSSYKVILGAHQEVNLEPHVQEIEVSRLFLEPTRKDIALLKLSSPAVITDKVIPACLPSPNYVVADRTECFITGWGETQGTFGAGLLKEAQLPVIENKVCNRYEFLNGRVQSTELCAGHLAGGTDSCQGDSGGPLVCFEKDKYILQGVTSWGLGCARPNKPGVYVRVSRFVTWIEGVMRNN
Sequence of plasmin (Plm) (P00747 97-580 limits assumed, species assumed): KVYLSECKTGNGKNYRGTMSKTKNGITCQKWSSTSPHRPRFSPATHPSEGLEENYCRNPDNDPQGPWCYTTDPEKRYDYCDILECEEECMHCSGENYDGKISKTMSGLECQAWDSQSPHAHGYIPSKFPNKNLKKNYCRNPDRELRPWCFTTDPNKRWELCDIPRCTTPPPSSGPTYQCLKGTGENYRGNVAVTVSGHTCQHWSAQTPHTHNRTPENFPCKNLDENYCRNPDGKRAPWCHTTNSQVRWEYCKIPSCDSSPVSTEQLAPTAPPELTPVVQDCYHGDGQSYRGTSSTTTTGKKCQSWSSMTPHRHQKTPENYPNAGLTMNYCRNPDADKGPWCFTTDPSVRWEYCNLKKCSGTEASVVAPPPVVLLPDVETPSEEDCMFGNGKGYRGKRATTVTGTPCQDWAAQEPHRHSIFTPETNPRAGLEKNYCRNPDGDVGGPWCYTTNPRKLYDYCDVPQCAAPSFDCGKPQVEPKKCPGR
Sequence of factor IXa (P00740 227-461 limits assumed): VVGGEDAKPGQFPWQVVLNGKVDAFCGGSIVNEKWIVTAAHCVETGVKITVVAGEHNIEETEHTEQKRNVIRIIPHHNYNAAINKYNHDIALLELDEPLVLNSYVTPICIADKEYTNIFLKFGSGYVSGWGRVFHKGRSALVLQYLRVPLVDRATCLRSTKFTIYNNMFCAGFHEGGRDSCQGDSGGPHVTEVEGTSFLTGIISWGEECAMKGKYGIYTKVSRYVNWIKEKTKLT
Sequence of factor IXa (P00740 47-191 limits assumed): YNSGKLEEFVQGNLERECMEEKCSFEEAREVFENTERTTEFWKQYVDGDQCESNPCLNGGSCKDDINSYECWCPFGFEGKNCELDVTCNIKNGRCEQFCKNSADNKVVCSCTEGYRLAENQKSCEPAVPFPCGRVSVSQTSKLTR
T1 sequence (P00742 235-488 limits assumed): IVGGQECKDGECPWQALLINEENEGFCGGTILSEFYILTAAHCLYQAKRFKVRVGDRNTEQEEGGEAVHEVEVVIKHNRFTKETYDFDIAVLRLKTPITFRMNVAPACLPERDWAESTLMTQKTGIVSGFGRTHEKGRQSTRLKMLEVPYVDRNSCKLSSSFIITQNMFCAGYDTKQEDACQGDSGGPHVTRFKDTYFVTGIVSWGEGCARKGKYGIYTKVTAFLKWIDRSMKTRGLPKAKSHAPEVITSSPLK
T1 sequence (P00742 41-179 limits assumed): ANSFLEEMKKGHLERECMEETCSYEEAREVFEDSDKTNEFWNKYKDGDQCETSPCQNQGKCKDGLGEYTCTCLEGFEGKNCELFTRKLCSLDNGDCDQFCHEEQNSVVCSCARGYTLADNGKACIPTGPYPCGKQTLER
Sequence of tissue plasminogen activator (t-PA) (P00750 36-562, species assumed): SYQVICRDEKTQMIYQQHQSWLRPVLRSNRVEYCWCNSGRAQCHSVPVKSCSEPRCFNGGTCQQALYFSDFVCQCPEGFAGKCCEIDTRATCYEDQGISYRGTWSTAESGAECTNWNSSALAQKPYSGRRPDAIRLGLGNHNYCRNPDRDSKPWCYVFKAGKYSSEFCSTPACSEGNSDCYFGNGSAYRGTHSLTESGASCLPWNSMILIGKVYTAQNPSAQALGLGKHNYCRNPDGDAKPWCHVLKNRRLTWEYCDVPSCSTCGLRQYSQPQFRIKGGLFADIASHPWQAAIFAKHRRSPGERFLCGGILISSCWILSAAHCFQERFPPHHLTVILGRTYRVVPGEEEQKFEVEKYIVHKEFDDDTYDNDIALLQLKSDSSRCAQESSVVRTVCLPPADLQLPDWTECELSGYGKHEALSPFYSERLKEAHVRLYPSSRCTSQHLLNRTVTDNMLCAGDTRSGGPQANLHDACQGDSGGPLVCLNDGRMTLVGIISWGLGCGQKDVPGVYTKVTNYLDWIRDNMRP

Cc1ccc(S(=O)(=O)NCC(=O)N2CCC[C@H]2C(=O)N[C@@H](CCCNC(=N)N)C(=O)Nc2ccc([N+](=O)[O-])cc2)cc1 [Chromozyme TH, reference compound] (Tos-Gly-Pro-Arg-pNA)
Kcat (factor Xa [1]): 244 s⁻¹
Km (factor Xa [1]): 364 µM
Kcat (factor IIa): 14.1
Km (factor IIa): 13.8 µM

Cc1ccc(S(=O)(=O)NCC(=O)N2CCC[C@H]2C(=O)N[C@@H](CCCNC(=N)N)C(=O)Nc2ccc3c(S(=O)(=O)NCC(C)C)cccc3c2)cc1 [TosGPR-ANSNH(i-C4 H9)]
TIME TO 10% HYDROLYSIS (HOURS), Xa (factor Xa [2]): 0.05 h
Km (factor Xa [2]; Table 9): 35.3 µM
kcat /Km, Xa (factor Xa [2]; Table 9): 6800 M⁻¹ s⁻¹
kcat, Xa (factor Xa [2]; Table 9): 2.4 s⁻¹
TIME TO 10% HYDROLYSIS (HOURS), IXa (factor IXa): 42 h
Km (factor IXa; Table 9): 123 µM
kcat, IXa (factor IXa; Table 9): 0.3 s⁻¹
kcat/Km, IXa (factor IXa; Table 9): 2400 M⁻¹ s⁻¹
Kcat (factor Xa [1]): 11.2 s⁻¹
Km (factor Xa [1]): 132 µM
Kcat (factor IIa): 45.6
Km (factor IIa): 10.5 µM
TIME TO 10% HYDROLYSIS (HOURS), IIa (thrombin (IIa); [5]): 0.01 h
Km (thrombin (IIa); Table 9): 11 µM
kcat, IIa (thrombin (IIa); Table 9): 52.6 s⁻¹
TIME TO 10% HYDROLYSIS (HOURS), APC ([3]; 10 nM enzyme): 0.02 h
Km [3]: 800 µM
kcat /Km, APC [3]: 150000 M⁻¹ s⁻¹
kcat, APC [3]: 120 s⁻¹
hydrolysis, VIIa (symbol d) (factor VIIa): d (hydrolysis at 100 hours was less than 10%.)
TIME TO 10% HYDROLYSIS (HOURS), t-PA [4]: 2 h
TIME TO 10% HYDROLYSIS (HOURS), u-PA (urokinase (u-PA)): 0.01 h
TIME TO 10% HYDROLYSIS (HOURS), Plm (plasmin (Plm); 10 nM enzyme): 0.25 h

N=C(N)NCCC[C@H](NC(=O)CNC(=O)CNC(=O)OCc1ccccc1)C(=O)N[C@@H](CCCNC(=N)N)C(=O)Nc1ccc2c(S(=O)(=O)NC3CCCCC3)cccc2c1 [ZGGRR-ANSNH(cyclo-C6 H11)]
Kinetic constants, Xa (symbol b) (factor Xa [2]; Table 9): b
hydrolysis, Xa (symbol d) (factor Xa [2]): d (hydrolysis at 100 hours was less than 10%.)
Kinetic constants, IXa (symbol b) (factor IXa; Table 9): b
hydrolysis, IXa (symbol d) (factor IXa): d (hydrolysis at 100 hours was less than 10%.)
TIME TO 10% HYDROLYSIS (HOURS), IIa (thrombin (IIa); 10 nM enzyme, substrate 1 μM): 93 h
Kinetic constants, IIa (symbol b) (thrombin (IIa); Table 9): b
TIME TO 10% HYDROLYSIS (HOURS), APC ([3]; 10 nM enzyme): 0.6 h
Km [3]: 320 µM
kcat /Km, APC [3]: 19300 M⁻¹ s⁻¹
kcat, APC [3]: 6.2 s⁻¹
hydrolysis, VIIa (symbol d) (factor VIIa): d (hydrolysis at 100 hours was less than 10%.)
hydrolysis, t-PA (symbol d) [4]: d (hydrolysis at 100 hours was less than 10%.)
hydrolysis, u-PA (symbol d) (urokinase (u-PA)): d (hydrolysis at 100 hours was less than 10%.)
TIME TO 10% HYDROLYSIS (HOURS), Plm (plasmin (Plm); 10 nM enzyme): 47 h

Br.Br.CC(C)C[C@@H](N)C(=O)N1CCC[C@H]1C(=O)N[C@@H](CCCNC(=N)N)C(=O)Nc1ccc2c(S(=O)(=O)N3CCCCC3)cccc2c1 [D-LPR-ANSN(CH2)5]
TIME TO 10% HYDROLYSIS (HOURS), Xa (factor Xa [2]): 0.4 h
Km (factor Xa [2]; Table 9): 400 µM
kcat /Km, Xa (factor Xa [2]; Table 9): 7250 M⁻¹ s⁻¹
kcat, Xa (factor Xa [2]; Table 9): 2.9 s⁻¹
TIME TO 10% HYDROLYSIS (HOURS), IXa (factor IXa): 4 h
Km (factor IXa; Table 9): 343 µM
kcat, IXa (factor IXa; Table 9): 0.4 s⁻¹
kcat/Km, IXa (factor IXa; Table 9): 1170 M⁻¹ s⁻¹
TIME TO 10% HYDROLYSIS (HOURS), IIa (thrombin (IIa); [5]): 0.01 h
Km (thrombin (IIa); Table 9): 7.7 µM
kcat, IIa (thrombin (IIa); Table 9): 11.6 s⁻¹
TIME TO 10% HYDROLYSIS (HOURS), APC ([3]; 10 nM enzyme): 0.02 h
Km [3]: 160 µM
kcat /Km, APC [3]: 6880 M⁻¹ s⁻¹
kcat, APC [3]: 1.1 s⁻¹
hydrolysis, VIIa (symbol d) (factor VIIa): d (hydrolysis at 100 hours was less than 10%.)
TIME TO 10% HYDROLYSIS (HOURS), t-PA [4]: 1.3 h
TIME TO 10% HYDROLYSIS (HOURS), u-PA (urokinase (u-PA)): 1 h
TIME TO 10% HYDROLYSIS (HOURS), Plm (plasmin (Plm); 10 nM enzyme): 0.33 h

Br.Br.Br.CN(C)S(=O)(=O)c1cccc2cc(NC(=O)[C@H](CCCNC(=N)N)NC(=O)[C@@H](N)CCCCN)ccc12 [KR-ANSN(CH3)2]
hydrolysis, Xa (symbol d) (factor Xa [2]): d (hydrolysis at 100 hours was less than 10%.)
hydrolysis, IXa (symbol d) (factor IXa): d (hydrolysis at 100 hours was less than 10%.)
hydrolysis, IIa (symbol d) (thrombin (IIa); at 100 hours, 10 nM enzyme, substrate 1 μM): d (hydrolysis at 100 hours was less than 10%.)
TIME TO 10% HYDROLYSIS (HOURS), APC ([3]; 100 nM enzyme (footnote b)): 8 h
hydrolysis, VIIa (symbol d) (factor VIIa): d (hydrolysis at 100 hours was less than 10%.)
hydrolysis, t-PA (symbol d) [4]: d (hydrolysis at 100 hours was less than 10%.)
hydrolysis, u-PA (symbol d) (urokinase (u-PA)): d (hydrolysis at 100 hours was less than 10%.)
TIME TO 10% HYDROLYSIS (HOURS), Plm (plasmin (Plm); 100 nM enzyme (footnote b)): 8 h
